Measurements as given in patent publication US20260008746A1, “CATIONIC LIPID COMPOUND WITH HIGH EFFICIENCY, LOW TOXICITY AND STABLE EXPRESSION, AND COMPOSITION COMPRISNG SAME” (HANGZHOU TIANLONG PHARMACEUTICAL CO., LTD, priority 2023, published 2026).

How the values were obtained:
[1] = Determination of particle size and polydispersity index (PDI) of lipid nanoparticles by dynamic light scattering; type: physicochemical; settings: LNP formulation of named cationic lipid/DSPC/cholesterol/DMG-PEG2000 49:10:39.5:1.5; for Particle size (nm): 90° scattering angle, 25° C
Experimental: The cationic lipids listed in Table 1 were dissolved in ethanol with DSPC (AVT (Shanghai) Pharmaceutical Technology Co., Ltd.), cholesterol (AVT (Shanghai) Pharmaceutical Technology Co., Ltd.) and DMG-PEG2000 according to a molar ratio of 49:10:39.5:1.5, respectively, to prepare lipid solution in ethanol. The lipid solution in ethanol was quickly added to citrate buffer (pH=4 to 5) by ethanol injection method, and vortexed for 30 s for later use. eGFP-mRNA (from Shanghai Biohub International Trade Co., Ltd) or Fluc-mRNA (from Shanghai Biohub International Trade Co., Ltd) was diluted in citrate buffer (pH=4 to 5) to give an aqueous mRNA solution. A certain volume of liposome solution and mRNA aqueous solution were used to prepare liposomes at a weight ratio of total lipids to mRNA of 15:1. The mixtures were sonicated at 25° C. for 15 min (with an ultrasonic frequency of 40 kHz and an ultrasonic power of 800 W). The resulting liposomes were diluted to 10 times volume with PBS, and then ultrafiltered with a 300 KDa ultrafiltration tube to remove ethanol. Then the volume was fixed to a certain volume with PBS to give an LNP formulation encapsulating eGFP-mRNA or Fluc-mRNA using cationic lipid/DSPC/cholesterol/DMG-PEG2000 (49:10:39.5:1.5 in molar percentage).
The particle size and polydispersity index (PDI) were determined by dynamic light scattering using Malvern laser particle size analyzer.
10 μL of the liposome solution was weighed, diluted to 1 mL with RNase-free deionized water, and added to the sample pool. Each sample was measured in triplicate. The measurement conditions were: 90° scattering angle, and 25° C.

BALB/C mice = test: In vivo imaging of Fluc-mRNA expression in mice delivered by LNP formulations; settings: for average radiation intensity, 6 h / average radiation intensity, 24 h / average radiation intensity, 48 h / average radiation intensity, 7 d: LNP containing 10 pg Fluc-mRNA, intramuscular, female BALB/C mice
Summary of the method: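 Female BALB/C mice (4-6 weeks, 17-19 g) received LNP carrying […] Fluc-mRNA intramuscularly. Substrate was given intraperitoneally at 6 h, 24 h, 48 h and 7 d, and average radiance was imaged by IVIS 5 min later.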

293T cells [2] = test: Cell survival rate determination (CCK-8); type: cell-based; settings: for Cell survival rate (%): LNP formulation containing 1.5 μg Fluc-mRNA, 24 hours, CCK-8, absorbance at 450 nm; for cell survival rate lower than that of YK-101: cell survival rate of YK-101 minus that of named substance; for cell survival rate lower than that of YK-107: cell survival rate of YK-107 minus that of named substance; for cell survival rate lower than that of YK-108: cell survival rate of YK-108 minus that of named substance
Summary of the method: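 293T cells were seeded overnight at 10,000 cells/well in 96-well plates, then exposed for 24 h to LNP containing 1.5 μg Fluc-mRNA (cationic:neutral:structural:polymer-conjugated lipid, 49:10:39.5:1.5 molar) or to Lipofectamine 3000. Viability was read by CCK-8, 1 h incubation, absorbance 450 nm.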

293T cells [3] = test: Fluorescent detection of Fluc-mRNA (cell transfection efficiency of LNP formulations); type: cell-based; settings: for Relative light unit (RLU): LNP formulation containing 0.3 μg Fluc-mRNA, 96-well plate, 24 hours; for Multiples (YK-101): RLU of YK-101 / RLU of named substance; for Multiples (YK-107): RLU of YK-107 / RLU of named substance; for Multiples (YK-108): RLU of YK-108 / RLU of named substance; for Ratio relative to SM-102: RLU of named substance / RLU of SM-102
Summary of the method: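 293T cells seeded at 10,000 per well, cultured overnight, then given LNP carrying 0.3 μg Fluc-mRNA (cationic:neutral:structured:PEG-lipid 49:10:39.5:1.5 molar). Incubated 24 h. Luciferase signal read with kit reagent on an IVIS imaging system.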

| PDI(%) [1] [%] | Particle size (nm) [1] [nm] | SMILES | average radiation intensity of YK-101, times that of named substance (BALB/C mice; 6 h) [times] | average radiation intensity of YK-107, times that of named substance (BALB/C mice; 6 h) [times] | average radiation intensity of YK-108, times that of named substance (BALB/C mice; 6 h) [times] | average radiation intensity of YK-101, times that of named substance (BALB/C mice; 24 h) [times] | average radiation intensity of YK-107, times that of named substance (BALB/C mice; 24 h) [times] | average radiation intensity of YK-108, times that of named substance (BALB/C mice; 24 h) [times] | average radiation intensity of YK-101, times that of named substance (BALB/C mice; 48 h) [times] | average radiation intensity of YK-107, times that of named substance (BALB/C mice; 48 h) [times] | average radiation intensity of YK-108, times that of named substance (BALB/C mice; 48 h) [times] | average radiation intensity of YK-101, times that of named substance (BALB/C mice; 7 d) [times] | average radiation intensity of YK-107, times that of named substance (BALB/C mice; 7 d) [times] | average radiation intensity of YK-108, times that of named substance (BALB/C mice; 7 d) [times] | average radiation intensity, 6 h (BALB/C mice; 6 h) | average radiation intensity, 24 h (BALB/C mice; 24 h) | average radiation intensity, 48 h (BALB/C mice; 48 h) | average radiation intensity, 7 d (BALB/C mice; 7 d) | Cell survival rate (%) (293T cells [2]) | cell survival rate lower than that of YK-101 (293T cells [2]) [%] | also measured |
| --- | --- | --- | --- | --- | --- | --- | --- | --- | --- | --- | --- | --- | --- | --- | --- | --- | --- | --- | --- | --- | --- |
| 12.5 | 151 | CCCCCCCCC(CCCCCCCC)OC(=O)CCCCCCCN(CCO)CCCCCCCC(=O)OCCC(CCCCCC)CCCCCC [Compound 21, 9-heptadecyl 8-(8-((3-hexylnonyl)oxy)-8-oxoctyl)-((2-hydroxyethyl)amino)octoate, reference compound] | 2.5 | 2.6 | 3.3 | 9.6 | 11.8 | 12.8 | 6.0 | 7.3 | 7.4 | 2.0 | 2.2 | 2.4 | 606680 | 110210 | 31062 | 6024 | 68.53 | 21.59 | cell survival rate lower than that of YK-107 (293T cells [2]): 21.92%; cell survival rate lower than that of YK-108 (293T cells [2]): 21.33%; Relative light unit (RLU) (293T cells [3]): 1389141 RLU; Multiples (YK-101) (293T cells [3]): 14.64; Multiples (YK-107) (293T cells [3]): 16.10; Multiples (YK-108) (293T cells [3]): 17.75; Ratio relative to SM-102 (293T cells [3]): 0.91 |
| 7.7 | 140 | CCCCCCC(CCCCCC)CCOC(=O)CCCCCCCN(CCO)CCCCCCCC(=O)OCCC(CCCCCC)CCCCCC [Compound 23, bis(3-hexylnonyl)-8, 8′-((2-hydroxyethyl)azadialkyl)dioctanoate, reference compound] | 2.5 | 2.7 | 3.4 | 9.4 | 11.6 | 12.5 | 5.6 | 6.8 | 7.0 | 2.1 | 2.3 | 2.4 | 599850 | 112670 | 33060 | 5863 | 70.91 | 19.21 | cell survival rate lower than that of YK-107 (293T cells [2]): 19.54%; cell survival rate lower than that of YK-108 (293T cells [2]): 18.95%; Relative light unit (RLU) (293T cells [3]): 1290824 RLU; Multiples (YK-101) (293T cells [3]): 15.75; Multiples (YK-107) (293T cells [3]): 17.32; Multiples (YK-108) (293T cells [3]): 19.10; Ratio relative to SM-102 (293T cells [3]): 0.84 |
